How the values were obtained:
mice's lungs = assay: In vivo transfection of luciferase plasmid DNA complexed with cationic lipid (luciferase in lungs, RLU); set-up: species or system mice of the Swiss lineage; conditions: mouse, 50 μg plasmid DNA as lipid/DNA complex; alone or with DOPE or cholesterol; FIG. 6
Protocol: Cationic lipid/DNA complexes are prepared according to a charge (+/−) ratio of 4 and are administered to six week old mice of the Swiss lineage through one single injection into the caudal vein. Each animal receives a volume of 200 μl of a solution of the tested lipid/DNA complex, corresponding to 50 μg plasmid DNA coding the luciferase protein.
The animals are sacrificed 24 hours after the injection and each organ of interest id deep frozen in liquid nitrogen and then stored at a temperature of −70° C.
The deep frozen tissues are ground with steel balls in a 2 ml round bottom tube of the Epperdorf type using a device of the Mill MM300 mixer type (marketed by QIAGEN Company; reference: 0030120-094).
The extraction of the proteins from each tissue is performed by incubating the ground tissues in a PLB lysis buffer (Promega) followed by a centrifugation at 10,000 g, 10 min at 4° C. […]
Parallelly, the total protein concentration is measured using the <<Coomassie Plus Reagent Assay Kit>> (marketed by Pierce Company). […]
A comparative study of different cationic lipids is conducted by varying the linking part (Group R^3) between the hydrophobic domain and the hydrophilic domain, in mouse. Each lipid is evaluated separately or in admixture with the DOPE compound or cholesterol, used as co-lipids, as described in the <<Material and Methods>> section.

[1] = test system: K 562, Jurkat, Daudi, HeLa, CFPAC cells; assay: Determination of the cell toxicity of lipid/DNA complexes (CYTOLITE chemiluminescent test, toxicity index); assay type: cell-based; conditions: 48 hours after transfection; non transfected cells as controls
Protocol: The relative cytotoxicity of the different cationic phosphonolipid/DNA complexes is determined as a representation of the number of living cells after the transfection experiment, measured by using a chemiluminescent test, the CYTOLITE® test (marketed by PACKARD Company, France) following the manufacturer's recommendations.
The cell transfection is conducted following the procedure described in the above Section A.3.
On the day of the transfection, cells are seeded in 24-well plate wells at a level of: • 500,000 cells per well for the non adherent cell lineages (K 562. Jurkat, Daudi); and • 150,000 cells per well for the adherent cell lineages (HeLa, CFPAC cells in primary culture).
The cells are treated for the transfection as described hereinabove and incubated for another period of 48 hours.
After incubation, the cytotoxicity test is conducted following the manufacturer's recommendations.
The amount of relative light units (RLU for <<Relative light units>>) being formed is proportional to the number of living cells.
The non transfected cells are used as controls.
The final results are expressed following a toxicity index. The toxicity index represents the ratio between the number of living cells in the control cultures (without cationic lipids/DNA complex) and the number of living cells in the culture wells containing the transfected cells.

| SMILES | in vivo transfection efficiency (luciferase amount found in lungs) (mice's lungs) | cytotoxicity (toxicity index: living cells in control cultures / living cells in transfected cultures) [1] |
| --- | --- | --- |
| CCCCCCCC/C=C\CCCCCCCCOP(=O)(NCCC[P+](C)(C)C)OCCCCCCCC/C=C\CCCCCCCC.[I-] [KLN20, dioleyl 3-(trimethylphosphonio)propylamidophosphate iodide] | most efficient |  |
| CCCCCCCCCCCCCCOP(=O)(OCCCCCCCCCCCCCC)N(C)CCC[N+](C)(C)C.[I-] [KLN 5, 3-[[bis(tetradecyloxy)phosphoryl](methyl)amino]-N.N.N-trimethyl-propanaminium iodide] |  | does not show any toxicity |

Source: patent US7667070B2, “Lipophilic compounds and uses thereof” (Centre National de la Recherche Scientifique (CNRS), priority 2002, dated 2010)
